Measured values reported in patent US7642367B2, “Diamino-functional chalcones” (Lica Pharmaceuticals A/S, priority 2002, dated 2010).
pIC50: −log10 of the molar value. Values after ≈ are worked out from the molar mass of the structure shown.

Assays:
[1] = test system: Bacteroides fragilis, Clostridium perfringens, Clostridium difficele; assay type: cell-based; settings: single concentration of compound (100 μM)
L. major promastigotes = experiment: Leishmania promastigote assay (3H-thymidine); settings: for pIC50: L. major
[2] = test system: Staphylococcus aureus ATCC33591 (resistant to methicillin); experiment: MIC determination in broth microdilution assay
[3] = test system: Enterococcus faecium #17501 (vancomycin-resistant clinical isolate); experiment: MIC determination in broth microdilution assay
[4] = test system: Streptococcus pneumoniae #998 (clinical isolate); experiment: MIC determination in broth microdilution assay
[5] = test system: Staphylococcus aureus ATCC29213; experiment: MIC determination in broth microdilution assay
[6] = test system: Enterococcus faecalis ATCC29212; experiment: MIC determination in broth microdilution assay
[7] = test system: Staphylococcus intermedius #2357 (clinical isolate); experiment: MIC determination in broth microdilution assay
[8] = Determination of metabolic stability (liver microsomes); assay type: in vitro ADME, Wistar rat; settings: rat liver microsomes, 20 μM, 15 min at 37° C.
Experimental: incubations were performed with Wistar rat liver microsomes (0.25 mg/ml) in 2% sodium bicarbonate solution. NADP (0.13 mg/ml), glucose-6-phosphate (0.63 mg/ml) and glucose-6-phosophate dehydrogenase (0.38 units/ml) were used as NADPH generation system and UDPGA (0.48 mg/ml) was added to include the phase II reaction, glucuronic acid conjugation, in the assay. After 5 minutes of pre-incubation the reaction was started by addition of the test article to give a final concentration of 20 μM. Samples were incubated for 15 min at 37° C. and the reactions were terminated by addition of equal volumes of acetonitrile. Blank incubations were performed at the same concentration but without addition of microsomes. Both blank and microsome-containing samples were made in replicats of three. Prior to analysis samples were centrifuged for 10 min. at 3500 rpm, HPLC system:
Initial conditions were 40% mobile phase A (acetonitrile) and 60% mobile phase B (10 mM ammonium acetate pH 9.5). During the first 20 minutes, the mobile phase was changed via a linear gradient to 90% A and 10% B. This was followed by a 5 minutes linear gradient to initial conditions, which were maintained for 5 min. The flow rate was 0.20 ml/min and injection volume 10 μl.

Eschericia coli ESS = experiment: MIC determination in broth microdilution assay; settings: H: Eschericia coli ESS; NA: no activity

SMILES: CCCCN(CCCC)c1cccc(/C=C/C(=O)c2ccccc2NCCCN(C)C)c1 [B033, (E)-3-(3-Dibutylamino-phenyl)-1-[2-(3-dimethylamino-propylamino)-phenyl]-propenone]
- activity against anaerobic bacteria [1]: activity against all microorganisms within the test panel

SMILES: CCCN(CCC)c1cccc(/C=C/C(=O)c2ccccc2NCCN(C)C)c1 [B035, (E)-1-[2-(2-Dimethylamino-ethylamino)-phenyl]-3-(3-dipropylamino-phenyl)-propenone]
- activity against anaerobic bacteria [1]: activity against all microorganisms within the test panel

SMILES: CCCCN(CCCC)c1ccc(OC)c(/C=C/C(=O)c2ccccc2NCCN(C)C)c1 [B038, (E)-3-(5-Dibutylamino-2-methoxy-phenyl)-1-[2-(2-dimethylamino-ethylamino)-phenyl]-propenone]
- activity against anaerobic bacteria [1]: activity against all microorganisms within the test panel

SMILES: CN(C)CCNc1ccc(C(=O)/C=C/c2cc(C(F)(F)F)cc(C(F)(F)F)c2)cc1 [B046, (E)-3-(3,5-Bis-trifluoromethyl-phenyl)-1-[4-(2-dimethylamino-ethylamino)-phenyl]-propenone]
- activity against anaerobic bacteria [1]: activity against all microorganisms within the test panel

SMILES: COc1cc(/C=C/C(=O)c2cccc(N(C)CCN(C)C)c2)cc(OC)c1 [B047, (E)-3-(3,5-Dimethoxy-phenyl)-1-{3-[(2-dimethylamino-ethyl)-methyl-amino]-phenyl}-propenone]
- times more potent than LicA (L. major promastigotes; Leishmania Major, dose-response curve FIG. 7): 10

SMILES: CCCCc1ccc(/C=C/C(=O)c2ccc(N(C)CCN(C)C)cc2)cc1 [B060, (E)-3-(4-Butyl-phenyl)-1-{4-[(2-dimethylamino-ethyl)-methyl-amino]-phenyl}-propenone]
- activity against anaerobic bacteria [1]: activity against all microorganisms within the test panel

SMILES: CN(C)CCNc1ccc(C(=O)/C=C/c2ccc3ccccc3n2)cc1 [B067, (E)-1-[4-(2-Dimethylamino-ethylamino)-phenyl]-3-quinolin-2-yl-propenone]
- pIC50 (L. major promastigotes): 6.05

SMILES: COc1ccc(-c2ccccc2)cc1/C=C/C(=O)c1ccc(N(C)CCN(C)C)cc1 [B073, (E)-1-{4-[(2-Dimethylamino-ethyl)-methyl-amino]-phenyl}-3-(4-methoxy-biphenyl-3-yl)-propenone]
- activity against anaerobic bacteria [1]: activity against all microorganisms within the test panel

SMILES: CCCCN(CCCC)c1ccc(/C=C/C(=O)c2cccc(NC(=O)CN(C)C)c2)cc1 [B089, (E)-N-{3-[3-(4-Dibutylamino-phenyl)-acryloyl]-phenyl}-2-dimethylamino-acetamide]
- MIC ([2]; Staphylococcus aureus, ATCC33591): 4.7 µM (≈ 2.05 µg/mL)
- MIC ([3]; Enterococcus faecium): 9.4 µM (≈ 4.09 µg/mL)
- MIC ([4]; Streptococcus pneumoniae): 37.5 µM (≈ 16.3 µg/mL)
- MIC ([5]; Staphylococcus aureus, ATCC29213): 4.7 µM (≈ 2.05 µg/mL)
- MIC ([6]; Enterococcus faecalis, ATCC29212): 9.4 µM (≈ 4.09 µg/mL)
- MIC ([7]; Staphylococcus intermedius): 4.7 µM (≈ 2.05 µg/mL)

SMILES: COc1ccccc1-c1ccc(/C=C/C(=O)c2ccccc2CN(C)C)c(N2CCN(C)CC2)c1 [B096, (E)-1-(2-Dimethylaminomethyl-phenyl)-3-[2′-methoxy-3-(4-methyl-piperazin-1-yl)-biphenyl-4-yl]-propenone]
- pIC50 (L. major promastigotes): 5.92

SMILES: Cc1cc(C)cc(-c2ccc(N(C)CCN(C)C)c(/C=C/C(=O)c3cccc(NCCN(C)C)c3)c2)c1 [B113, (E)-1-[3-(2-Dimethylamino-ethylamino)-phenyl]-3-{4-[(2-dimethylamino-ethyl)-methyl-amino]-3′,5′-dimethyl-biphenyl-3-yl}-propenone]
- Metabolic turn-over in vitro [8]: 4%

SMILES: COc1ccc(C(=O)/C=C/c2cc(-c3cc(C)cc(C)c3)ccc2N2CCN(C)CC2)c(F)c1 [B182, (E)-3-[3′,5′-Dimethyl-4-(4-methyl-piperazin-1-yl)-biphenyl-3-yl]-1-(2-fluoro-4-methoxy-phenyl)-propenone]
- Metabolic turn-over in vitro [8]: 2%
- MIC ([2]; B: Staphylococcus aureus ATCC33591 (resistant to methicillin), NA: no activity): 4.7 µM (≈ 2.16 µg/mL)
- MIC ([3]; E: Enterococcus faecium #17501 (vancomycin-resistant), NA: no activity): 4.7 µM (≈ 2.16 µg/mL)
- MIC ([4]; F: Streptococcus pneumoniae #998, NA: no activity): 18.8 µM (≈ 8.62 µg/mL)
- MIC ([5]; A: Staphylococcus aureus ATCC29213, NA: no activity): 4.7 µM (≈ 2.16 µg/mL)
- MIC ([6]; D: Enterococcus faecalis ATCC29212, NA: no activity): 9.4 µM (≈ 4.31 µg/mL)
- MIC ([7]; C: Staphylococcus intermedius #2357, NA: no activity): 4.7 µM (≈ 2.16 µg/mL)
- MIC (Eschericia coli ESS): 75 µM (≈ 34.4 µg/mL)

SMILES: COc1ccccc1-c1ccc(/C=C/C(=O)c2ccccc2CN(C)CCN(C)C)c(N2CCN(C)CC2)c1 [B216, (E)-1-(2-{[(2-Dimethylamino-ethyl)-methyl-amino]-methyl}-phenyl)-3-[2′-methoxy-3-(4-methyl-piperazin-1-yl)-biphenyl-4-yl]-propenone]
- Metabolic turn-over in vitro [8]: 6%
